Measured values from patent publication EP0381422B1, “Tetrahydrobenzimidazole derivatives” (YAMANOUCHI PHARMACEUTICAL CO. LTD., priority 1989, dated 1990).

System: 5-HT3 receptor
Test: Antagonism against 5-HT3-receptor: inhibition of serotonin-induced Bezold-Jarish (BJ) reflex in anesthetized rats
Type: in vivo, Wistar male rats
Description: Antagonism Against 5-HT3-Receptor
Nine-week-old Wistar male rats were anesthetized by intravenous injection of 1 g/kg of urethane, and blood pressure and heart rate were measured under artificial respiration. Transient reduction in heart rate and blood pressure induced by intravenous administration of serotonin or 2-methylserotonin which is a selective agonist of 5-HT3 was taken as an index of the reaction via 5-HT3 receptor [Bezold-Jarish reflex; Paintal, A.S., Pysiolo. Rev., Vol. 53, p.
Inhibitory activity of compounds of the present invention on serotonin-induced Bezold-Jarish (BJ) reflex in rats is shown in Table 1.

| SMILES | BJ Reflex Inhibitory Activity (ED50; µg/kg, i.v.) [µg/kg] |
| --- | --- |
| O=C(C1CCc2nc[nH]c2C1)N1CCc2ccccc21.O=C(O)/C=C/C(=O)O (centres unmarked) [Example 2, 5-[(2,3-Dihydroindol-1-yl)carbonyl]-4,5,6,7-tetrahydrobenzimidazole fumarate] | 0.29 |
| O=C(C1CCc2nc[nH]c2C1)n1c(=O)[nH]c2ccccc21 (centres unmarked) [Example 9, 1-[(4,5,6,7-tetrahydrobenzimidazol-5-yl)carbonyl]-2,3-dihydrobenzimidazol-2-one] | 0.80 |
